Results as given in patent US9809562B2, “NAT10 modulators for treating or preventing laminopathies, aging and cancer” (CAMBRIDGE ENTERPRISE LIMITED, priority 2014, dated 2017).
Structures can show the parent of a compound that is named as a salt.

Experiments:
[1] = tested on: Lamin A/C depleted (siLMNA) U2OS cells; assay: Nuclear shape rescue (DAPI staining, nuclear circularity) in Lamin A/C depleted cells; format: cell-based, human; conditions: for nuclear shape / nuclear circularity rescue: 16 hours, Compound 2 and 3 50 μM, MB-3 5 μM, FTI 5 μM, nocodazole 200 ng/ml, colchicine 1 μg/ml, latrunculin A 1 μM; for increase in potency compared to Compound 2 (dose-dependent nuclear shape rescue): DAPI staining
Description: U2OS and SaOS-2 osteosarcoma cells, HeLa cervical cancer cells, A431 melanoma cells, NCI-SNU5 gastric cancer cells, MRC-5 lung fibroblast cells and Werner syndrome patient-derived SV40 fibroblast cells were grown in Dulbecco's modified Eagle medium (DMEM, Sigma-Aldrich) supplemented with 10% fetal bovine serum (BioSera), 2 mM L-glutamine, 100 U per ml penicillin, 100 μg ml^−1 streptomycin. Normal skin primary fibroblasts GM03440 and Hutchinson Gilford Progeria Syndrome (HGPS) skin primary fibroblasts AG11498 and AG06297 were purchased from Coriell Cell Repositories and used between passage number 9-12 and 20-23 respectively. Cells were grown in DMEM supplemented as above. RPE-1 retinal pigment epithelial cells were grown in DMEM and Ham F12 mix medium supplemented as above and buffered with sodium bicarbonate. HMV-II melanoma cell line, 22RV1 prostate carcinoma cells, NCI-H82 and NCI-H69 lung carcinoma cells, and NCI-N87 gastric cancer cell lines were grown in RPMI-1640 medium (Sigma-Aldrich) supplemented as above. Stably transfected U2OS cells were maintained in standard medium containing 1 mg ml^−1 G418 (Invitrogen). The siRNA duplexes were obtained from Life Sciences: Lamin A/C stealth RNAi: […] (SEQ ID NO: 1) and […] (SEQ ID NO: 2), NAT10 stealth RNAi: […] (SEQ ID NO: 3), and as control siRNA, stealth RNAi negative control duplexes were used. Plasmid DNA and siRNA transfections were carried out using Lipofectamine 2000 and Lipofectamine RNAiMax (Life Sciences) respectively, following the manufacturer's instructions. Cells were analysed 48 to 72 hours after transfection.
The following KAT and KDAC inhibitors were used in the nuclear shape rescue screen, incubating cells with the molecules for 16 hours: trichostatin A (1 μM), sodium butyrate (5 mM), tubacin (10 μM), SAHA (5 μM), curcumin (10 μM), garcinol (50 μM), anacardic acid (1 μM), MB-3 (5 μM), 4-(4-chlorophenyl)-2-(2-cyclopentylidenehydrazinyl)thiazole (Compound 2) (50 μM), 4-(4-chlorophenyl)-2-(2-cyclopentylidene-1-(prop-2-yn-1-yl)hydrazinyl)thiazole (Compound 3) (50 μM) and cyclopentylidene-[4-(4-cyanophenyl)thiazol-2-yl)hydrazine (Compound 1) (Remodelin) (10 to 50 μM). For HGPS cellular fitness assays, Remodelin was incubated at 1 μM for 1 to 10 days, renewing the medium every 3 days. For long-term senescence assay, cells were kept and passaged in medium containing 1 μM Remodelin or DMSO only for 12 population doublings. Senescence was assessed after 8 days of Remodelin treatment when cells were at Population Doubling 12, and then after several weeks of Remodelin treatment, when cells reached Population Doubling 24 using the Senescence β-Galactosidase Staining Kit #9860 from Cell Signaling. Nocodazole, colchicine and latrunculin A (Sigma-Aldrich) were used at 200 ng/ml, 1 μg/ml and 1 μM respectively. Aphidicolin (Sigma-Aldrich) was used at 5 μg/ml for 16 h. Farnesyltransferase inhibitor FTI-277 was purchased from Tocris Bioscience and used at 5 μM. ATMi (KU55933) and ATRi (ATR-45) were obtained from Tocris Bioscience and from the Ohio State University respectively and used at 10 μM and 500 nM. Pifithrin alpha (Sigma-Aldrich) was used at 10 μM.
CellProfiler software was used to quantify nuclear circularity and nuclear area from DAPI staining pictures, using the “object size shape” measurement. The AreaShape measurement allowed the calculation of the Form Factor index ([…]) corresponding to circularity (a Form Factor of 1 reflecting a perfect circle), as well as the calculation of nuclear Area.
Lamin A/C was depleted by siRNA in U2OS cells (siLMNA) to induce misshapen nuclei. Cells were then treated for 16 h with various analogues of Compound 2 and nuclear shape rescue was analysed by DAPI staining. The results are shown in FIG. 18 and FIG. 19 which display the structures of the tested molecules and their ability to rescue nuclear shape.

siLMNA cells = assay: Cell cycle profile by flow cytometry; format: cell-based, human
Description: 10 μM EdU was incubated for 2 hours when indicated. Cells were fixed in 4% paraformaldehyde (Sigma-Aldrich). EdU was fluorescently labeled using the Click-iT® EdU Flow Cytometry Assay Kit (Life Sciences). DNA was stained with […] propidium iodide (Sigma-Aldrich) in phosphate buffer solution (PBS) containing 0.1% Triton-X-100 and 0.5 mg ml^−1 DNase free RNase A (Sigma-Aldrich). Samples were processed on a FACSCalibur flow cytometer equipped with CellQuest software (Becton Dickinson). Results were analysed using FlowJo software (TreeStar).

[2] = Stability on exposure to light or air; format: physicochemical
[3] = A431 proliferation assay (IncuCyte ZOOM); format: cell-based, human
Description: A431 cells expressing a low level of Lamin A protein (see FIG. 2) were plated at low density and treated with the indicated concentration of Compound 2. Cell growth was monitored automatically over time using an IncuCyte ZOOM®.

Row | Structure (SMILES) | nuclear shape / nuclear circularity rescue [1] | effect on cell cycle profile (siLMNA cells; siLMNA cells) | stability [2] | A431 cell growth ([3]; indicated concentrations, growth monitored over time) | increase in potency compared to Compound 2 (dose-dependent nuclear shape rescue) [1] | increase in potency compared to Compound 2 (dose-dependent nuclear shape rescue) ([1]; listed as Remodelin) [fold] | accumulation of cells in mitosis (siLMNA cells) | reduction of A431 proliferation ([3]; 10 μM)
1 | Clc1ccc(-c2csc(NN=C3CCCC3)n2)cc1 [Compound 2, 4-(4-Chlorophenyl)-2-(2-cyclopentylidenehydrazinyl)thiazole Hydrochloride Salt] | completely restoring nuclear shape and circularity | without markedly affecting the cell cycle profile | rapidly degraded upon exposure to light or air | inhibited in a dose-dependent manner |  |  |  | 
2 | N#Cc1ccc(-c2csc(NN=C3CCCC3)n2)cc1 [Compound 1, 4-(4-Cyanophenyl)-2-(2-cyclopentylidenehydrazinyl)thiazole] |  |  | most potent and stable analogue of the series |  | five-fold | ~5 | cells did not accumulate in mitosis | about 50%
3 | C#CCN(N=C1CCCC1)c1nc(-c2ccc(Cl)cc2)cs1 [Compound 3, 4-(4-Chlorophenyl)-2-(2-cyclopentylidene-1-(prop-2-yn-1-yl)hydrazinyl)thiazole] | equivalent cellular activity as Compound 2 |  |  |  |  |  |  | 
